For data set [1] the following is noted: cited from earlier work.
In data set [2] the target is T1, ANGIOTENSIN II AT1 receptor (Homo sapiens, UniProt P30556).
T1 sequence (P30556 1-359): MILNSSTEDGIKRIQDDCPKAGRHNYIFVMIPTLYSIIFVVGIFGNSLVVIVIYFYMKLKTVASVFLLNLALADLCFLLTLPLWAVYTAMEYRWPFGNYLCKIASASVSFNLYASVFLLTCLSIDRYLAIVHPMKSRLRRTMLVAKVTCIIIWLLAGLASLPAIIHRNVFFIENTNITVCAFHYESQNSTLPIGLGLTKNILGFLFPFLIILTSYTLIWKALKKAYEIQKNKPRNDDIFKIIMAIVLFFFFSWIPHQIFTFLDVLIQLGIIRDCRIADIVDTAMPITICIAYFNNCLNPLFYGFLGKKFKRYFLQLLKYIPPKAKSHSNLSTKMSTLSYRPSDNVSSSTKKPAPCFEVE
As to conditions: cited from earlier work.

For data set [3] the following is noted: cited from earlier work. The source holds these as a separate data set.
Data set [4] has as its system pressor effect of Ang II. Briefly: Pressor effect of Ang II in rats after losartan or losartan included in cyclodextrin (gavage). The format is in vivo. As to conditions: losartan 0.2 mg/Kg, tested 2, 6, 24 and 48 hours after.
In data set [5] the test system is pressor effect of Ang II. In words: Pressor effect of Ang II in rats after subcutaneous losartan or losartan incorporated in biodegradable polymer (telemetric recording of arterial pressure). The format is in vivo. Particulars: losartan 0.7 mg. Here is the method: Male rats weighing (330-350 g) instrumented for telemetric recording of arterial pressure (Data Science System) were anesthetized and submitted to the implantation of […] femoral vein. […] Injections of Ang II were made after 2, 8 and 24 hours and then at intervals of 24 hours, for 15 days.

The conditions of data set [6]: cited from earlier work. The source holds these as a separate data set.
For data set [7] the following is noted: cited from earlier work. This is another data set of the same source.

Read-outs that look alike come from different tables or passages of the source.

For `CCCCC1=NC2(CCCC2)C(=O)N1Cc1ccc(-c2ccccc2-c2nnn[nH]2)cc1` [Irbersartan], the “excreted by the bile” value in data set [1] (in vivo) is given as 80%.
For the molecule `CCCc1nc2c(C)cc(-c3nc4ccccc4n3C)cc2n1Cc1ccc(-c2ccccc2C(=O)O)cc1` [Telmisartan], in data set [1] (in vivo), the bioavailability is 45% and the “excreted by the bile” value is 97%.
Regarding `CCCCc1nc(Cl)c(CC(=O)[O-])n1Cc1ccccc1Cl.[Na+]` [S-8307], the “binding / affinity for the Ang II AT1 receptor” value (“binding / affinity” below) in data set [2] was “weak binding”.
As to `CC[C@H](C)[C@H](NC(=O)[C@H](CCC(N)=O)NC(=O)[C@@H]1CCCN1C(=O)[C@H](CCCNC(=N)N)NC(=O)[C@@H]1CCCN1C(=O)[C@H](Cc1c[nH]c2ccccc12)NC(=O)[C@@H]1CCC(=O)N1)C(=O)N1CCC[C@H]1C(=O)N1CCC[C@H]1C(=O)O` [teprotide], the figures for the anti-hypertensive action result in data set [3] (intravenous route) and in data set [3] (oral route) were “has an anti-hypertensive action” and “inactive”, respectively.
As to `CCCCC(=O)N(Cc1ccc(-c2ccccc2-c2nnn[nH]2)cc1)[C@H](C(=O)O)C(C)C` [Valsartan, 1-oxopentyl-N′[[2′-(1H-tetrazole-5-yl)[1,1′-biphenyl]-4-yl]methyl]-L-vaniline], in data set [1] (in vivo), the half-life is 9 h and the “time to peak of maximum concentration” value is “about 2 hours”.
Consider `CCCCc1nc(Cl)c(CO)n1Cc1ccc(-c2ccccc2-c2nn[nH]n2)cc1` [Losartan], for which the half-life result in data set [1] (in vivo) is given as “about two”. Moreover, in data set [1] (oral dose), the “excreted as EXP-3174” value was 8%. Further, in data set [1] (oral dose), the “excreted with the losartan” value was 5%. Besides, in the data set on pressor effect of Ang II [4], the “duration of blockade of the pressor effect of Ang II” value was “about 8 hours”. Also, in the data set with pressor effect of Ang II [5], the “duration of blockade of the Ang II effect” value is recorded as “about 8 hours”. In addition, the solubility result is on record as “soluble” in data set [6] (in alcohol); “slightly soluble” in data set [6] (in common organic solvents, such as acetonitrile and methyl-ethyl-cetone); “soluble” in data set [6] (in water).
`CCCCc1ncc(/C=C(\Cc2cccs2)C(=O)O)n1Cc1ccc(C(=O)O)cc1` [Eprosartan, (E)-a-[[2-butyl-1-[(4-carboxyphenyl)metyl]-1H-imidazol-5-yl]methylene]-2-thiofenepropanoic acid]: in data set [1] (in vivo), the “eliminated through the feces” value was “Approximately 90%” and the “time to peak of maximum concentration” value was “about 2 hours”. Besides, the “binding / affinity” value in data set [2] was “high affinity”.
Take `CCOc1nc2cccc(C(=O)O)c2n1Cc1ccc(-c2ccccc2-c2nnn[nH]2)cc1` [Candesartan]: in data set [1] (in vivo), the bioavailability entry was “about 40%” and the half-life is 9 h.
Take `CCOC(=O)[C@H](C)C[C@@H](C)C(=O)N1c2ccccc2C[C@H]1C(=O)O` [Pentopril]: in data set [7], the “stability in the human plasma” value is “highly stable”.
As for `CCCCc1nc(Cl)c(CC(=O)[O-])n1Cc1ccccc1[N+](=O)[O-].[Na+]` [S-8308], the “binding / affinity” value in data set [2] is reported as “weak binding”.

Values taken from US7858597B2, “Preparation of formulations of angiotensin II AT1 receptors antagonists for the treatment of arterial hypertension, other cardiovascular illnesses and its complications” (Universidade Federal De Mimas Gerais - UFMG, priority 2001, dated 2010).
